Data reported in patent US20230407243A1, “GENETIC PLATFORM TO INVESTIGATE THE FUNCTIONS OF BACTERIAL DRUG EFFLUX PUMPS” (priority 2022, published 2023).

How the values were obtained:
Assay in all cases: MIC susceptibility profiling, efflux platform
Assay type in all cases: cell-based, Escherichia coli
[1] = system: EKO-35 araC::emrAB; settings: for Fold change of MICs: EKO-35 araC::emrAB compared to EKO-35; for MIC: Escherichia coli, read-out: Minimum Inhibitory Concentration, EKO-35 araC::emrAB; for MIC / Minimum Inhibitory Concentration, EKO-35 araC::emrAB: Table 13B, non-porinated, technical duplicate
Method in brief: (§1)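 LB o/n 37 °C → PBS pH 7.4, OD600 ~1.0 → 1/2000 in MHB II; 2-fold cmpd series, duplicate, DMSO ctrl; 18 h 37 °C, 900 rpm; OD600 post minus pre.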

[2] = system: EKO-35 araC::mdtEF; settings: for Fold change of MICs: EKO-35 araC::mdtEF compared to EKO-35; for MIC: Escherichia coli, read-out: Minimum Inhibitory Concentration, EKO-35 araC::mdtEF; for MIC / Minimum Inhibitory Concentration, EKO-35 araC::mdtEF: Table 13A, non-porinated, technical duplicate
Method in brief: as §1

[3] = system: EKO-35 araC::acrD; settings: for Fold change of MICs: EKO-35 araC::acrD compared to EKO-35; for MIC: Escherichia coli, read-out: Minimum Inhibitory Concentration, EKO-35 araC::acrD; for MIC / Minimum Inhibitory Concentration, EKO-35 araC::acrD: Table 13A, non-porinated, technical duplicate
Method in brief: as §1

[4] = system: EKO-35 araC::macAB; settings: for Fold change of MICs: EKO-35 araC::macAB compared to EKO-35; for MIC: Escherichia coli, read-out: Minimum Inhibitory Concentration, EKO-35 araC::macAB; for MIC / Minimum Inhibitory Concentration, EKO-35 araC::macAB: Table 13B, non-porinated, technical duplicate
Method in brief: as §1

[5] = system: EKO-35 araC::emrKY; settings: for Fold change of MICs: EKO-35 araC::emrKY compared to EKO-35; for MIC: Escherichia coli, read-out: Minimum Inhibitory Concentration, EKO-35 araC::emrKY; for MIC / Minimum Inhibitory Concentration, EKO-35 araC::emrKY: Table 13B, non-porinated, technical duplicate
Method in brief: as §1

[6] = system: EKO-35 araC::mexCD (MexCD from P. aeruginosa); settings: for Fold change of MICs: EKO-35 araC::mexCD compared to EKO-35; for MIC / Minimum Inhibitory Concentration, EKO-35 araC::mexCD: Table 13B, non-porinated, technical duplicate; for MIC: read-out: Minimum Inhibitory Concentration, EKO-35 araC::mexCD
Method in brief: as §1

[7] = system: EKO-35 araC::acrB; settings: for Fold change of MICs: EKO-35 araC::acrB compared to EKO-35; for MIC: Escherichia coli, read-out: Minimum Inhibitory Concentration, EKO-35 araC::acrB; for MIC / Minimum Inhibitory Concentration, EKO-35 araC::acrB: Table 13A, non-porinated, technical duplicate
Method in brief: as §1

SMILES: COc1cccc2c1C(=O)c1c(O)c3c(c(O)c1C2=O)C[C@@](O)(C(C)=O)C[C@@H]3O[C@H]1C[C@H](N)[C@H](O)[C@H](C)O1 [daunorubicin]
- Fold change of MICs [1]: 1 fold
- MIC [1]: 3.12 µg/mL
- Fold change of MICs [2]: 64 fold
- MIC [2]: 200 µg/mL
- Fold change of MICs [3]: 2 fold
- MIC [3]: 6.25 µg/mL
- Fold change of MICs [4]: 2 fold
- MIC [4]: 6.25 µg/mL
- Fold change of MICs [5]: 1 fold
- MIC [5]: 3.12 µg/mL
- Fold change of MICs [6]: 32 fold
- MIC [6]: 100 µg/mL
- Fold change of MICs [7]: 64 fold
- MIC [7]: 200 µg/mL

SMILES: CO[C@H]1/C=C/O[C@@]2(C)Oc3c(C)c(O)c4c(O)c(c(/C=N/N5CCN(C)CC5)c(O)c4c3C2=O)NC(=O)/C(C)=C\C=C\[C@H](C)[C@H](O)[C@@H](C)[C@@H](O)[C@@H](C)[C@H](OC(C)=O)[C@@H]1C [rifampicin]
- MIC [1]: 6.25 µg/mL
- MIC [2]: 6.25 µg/mL
- MIC [3]: 6.25 µg/mL
- MIC [4]: 6.25 µg/mL
- MIC [5]: 6.25 µg/mL
- MIC [6]: 3.12 µg/mL
- MIC [7]: 6.25 µg/mL

SMILES: [H]/N=C(\N/C(=N/[H])NCCCCCCNC(=N)NC(=N)Nc1ccc(Cl)cc1)Nc1ccc(Cl)cc1 [Chlorhexidine]
- Fold change of MICs [1]: 1 fold
- MIC [1]: 0.391 µg/mL
- Fold change of MICs [2]: 1 fold
- MIC [2]: 0.391 µg/mL
- Fold change of MICs [3]: 1 fold
- MIC [3]: 0.391 µg/mL
- Fold change of MICs [4]: 1 fold
- MIC [4]: 0.391 µg/mL
- Fold change of MICs [5]: 1 fold
- MIC [5]: 0.391 µg/mL
- Fold change of MICs [6]: 1 fold
- MIC [6]: 0.391 µg/mL
- Fold change of MICs [7]: 1 fold
- MIC [7]: 0.391 µg/mL

SMILES: CCn1cc(C(=O)O)c(=O)c2ccc(C)nc21 [nalidixic acid]
- Fold change of MICs [1]: 8 fold
- MIC [1]: 10 µg/mL
- Fold change of MICs [2]: 1 fold
- MIC [2]: 1.25 µg/mL
- Fold change of MICs [3]: 2 fold
- MIC [3]: 2.5 µg/mL
- Fold change of MICs [4]: 1 fold
- MIC [4]: 1.25 µg/mL
- Fold change of MICs [5]: 1 fold
- MIC [5]: 1.25 µg/mL
- Fold change of MICs [6]: 2 fold
- MIC [6]: 2.5 µg/mL
- Fold change of MICs [7]: 8 fold
- MIC [7]: 10 µg/mL

SMILES: CC[C@H]1OC(=O)[C@H](C)[C@@H](O[C@H]2C[C@@](C)(OC)[C@@H](O)[C@H](C)O2)[C@H](C)[C@@H](O[C@@H]2O[C@H](C)C[C@H](N(C)C)[C@H]2O)[C@](C)(O)C[C@@H](C)CN(C)[C@H](C)[C@@H](O)[C@]1(C)O [azithromycin]
- Fold change of MICs [1]: 1 fold
- MIC [1]: 0.781 µg/mL
- Fold change of MICs [2]: 8 fold
- MIC [2]: 6.25 µg/mL
- Fold change of MICs [3]: 1 fold
- MIC [3]: 0.781 µg/mL
- Fold change of MICs [4]: 4 fold
- MIC [4]: 3.12 µg/mL
- efflux pump-mediated resistance vs EKO-35 ([4]; MacAB): specific
- Fold change of MICs [5]: 1 fold
- Fold change of MICs [6]: 4 fold
- MIC [6]: 3.12 µg/mL
- Fold change of MICs [7]: 16 fold
- MIC [7]: 12.5 µg/mL

SMILES: O=C(Nc1ccccc1)Nc1ccc(Br)c(C(F)(F)F)c1 [compound 6]
- Fold change of MICs [1]: 1 fold
- Minimum Inhibitory Concentration, EKO-35 araC::emrAB [1]: 320 µg/mL
- Fold change of MICs [2]: 1 fold
- Minimum Inhibitory Concentration, EKO-35 araC::mdtEF [2]: 320 µg/mL
- Fold change of MICs [3]: 1 fold
- Minimum Inhibitory Concentration, EKO-35 araC::acrD [3]: 320 µg/mL
- Fold change of MICs [4]: 1 fold
- Minimum Inhibitory Concentration, EKO-35 araC::macAB [4]: 320 µg/mL
- Fold change of MICs [5]: 1 fold
- Minimum Inhibitory Concentration, EKO-35 araC::emrKY [5]: 320 µg/mL
- Fold change of MICs [6]: 1 fold
- Minimum Inhibitory Concentration, EKO-35 araC::mexCD [6]: 320 µg/mL
- Fold change of MICs [7]: 1 fold
- Minimum Inhibitory Concentration, EKO-35 araC::acrB [7]: 320 µg/mL

SMILES: NCCCNCCCCNCCCN [Spermine]
- Fold change of MICs [1]: 1 fold
- Fold change of MICs [2]: 1 fold
- Fold change of MICs [3]: 1 fold
- Fold change of MICs [4]: 1 fold
- Fold change of MICs [5]: 1 fold
- Fold change of MICs [6]: 1 fold
- MIC [6]: 2000 µg/mL
- Fold change of MICs [7]: 1 fold

SMILES: CC(C)c1ccc(C=C(C#N)c2nc3ccccc3[nH]2)cc1 [compound 12]
- Fold change of MICs [1]: 1 fold
- Minimum Inhibitory Concentration, EKO-35 araC::emrAB [1]: 320 µg/mL
- Fold change of MICs [2]: 1 fold
- Minimum Inhibitory Concentration, EKO-35 araC::mdtEF [2]: 320 µg/mL
- Fold change of MICs [3]: 1 fold
- Minimum Inhibitory Concentration, EKO-35 araC::acrD [3]: 320 µg/mL
- Fold change of MICs [4]: 1 fold
- Minimum Inhibitory Concentration, EKO-35 araC::macAB [4]: 320 µg/mL
- Fold change of MICs [5]: 1 fold
- Minimum Inhibitory Concentration, EKO-35 araC::emrKY [5]: 320 µg/mL
- Fold change of MICs [6]: 1 fold
- Minimum Inhibitory Concentration, EKO-35 araC::mexCD [6]: 320 µg/mL
- Fold change of MICs [7]: 1 fold
- Minimum Inhibitory Concentration, EKO-35 araC::acrB [7]: 320 µg/mL

SMILES: COc1cccc2c1C(=O)c1c(O)c3c(c(O)c1C2=O)C[C@@](O)(C(=O)CO)C[C@@H]3O[C@H]1C[C@H](N)[C@H](O)[C@H](C)O1 [doxorubicin]
- Fold change of MICs [1]: 1 fold
- MIC [1]: 1.56 µg/mL
- Fold change of MICs [2]: 64 fold
- MIC [2]: 100 µg/mL
- Fold change of MICs [3]: 2 fold
- MIC [3]: 3.12 µg/mL
- Fold change of MICs [4]: 1 fold
- MIC [4]: 1.56 µg/mL
- Fold change of MICs [5]: 1 fold
- MIC [5]: 1.56 µg/mL
- Fold change of MICs [6]: 16 fold
- MIC [6]: 25 µg/mL
- Fold change of MICs [7]: 128 fold
- MIC [7]: 200 µg/mL

SMILES: CN[C@H](CC(C)C)C(=O)N[C@H]1C(=O)N[C@@H](CC(N)=O)C(=O)N[C@H]2C(=O)N[C@H]3C(=O)N[C@H](C(=O)N[C@H](C(=O)O)c4cc(O)cc(O)c4-c4cc3ccc4O)[C@H](O)c3ccc(c(Cl)c3)Oc3cc2cc(c3O[C@@H]2O[C@H](CO)[C@@H](O)[C@H](O)[C@H]2O[C@H]2C[C@](C)(N)[C@H](O)[C@H](C)O2)Oc2ccc(cc2Cl)[C@H]1O [vancomycin]
- Fold change of MICs [1]: 1 fold
- MIC [1]: 200 µg/mL
- Fold change of MICs [2]: 1 fold
- MIC [2]: 200 µg/mL
- Fold change of MICs [3]: 1 fold
- MIC [3]: 200 µg/mL
- Fold change of MICs [4]: 1 fold
- MIC [4]: 200 µg/mL
- Fold change of MICs [5]: 1 fold
- MIC [5]: 200 µg/mL
- Fold change of MICs [6]: 1 fold
- MIC [6]: 200 µg/mL
- Fold change of MICs [7]: 1 fold
- MIC [7]: 200 µg/mL

SMILES: O=c1oc(-c2ccccc2Cl)nn1-c1ccc(C(F)(F)F)cn1 [compound 5]
- Fold change of MICs [1]: 16 fold
- Minimum Inhibitory Concentration, EKO-35 araC::emrAB [1]: 320 µg/mL
- Fold change of MICs [2]: 16 fold
- Minimum Inhibitory Concentration, EKO-35 araC::mdtEF [2]: 320 µg/mL
- Fold change of MICs [3]: 2 fold
- Minimum Inhibitory Concentration, EKO-35 araC::acrD [3]: 40 µg/mL
- Fold change of MICs [4]: 1 fold
- Minimum Inhibitory Concentration, EKO-35 araC::macAB [4]: 20 µg/mL
- Fold change of MICs [5]: 1 fold
- Minimum Inhibitory Concentration, EKO-35 araC::emrKY [5]: 20 µg/mL
- Fold change of MICs [6]: 16 fold
- Minimum Inhibitory Concentration, EKO-35 araC::mexCD [6]: 320 µg/mL
- Fold change of MICs [7]: 16 fold
- Minimum Inhibitory Concentration, EKO-35 araC::acrB [7]: 320 µg/mL

SMILES: CC1(C)S[C@@H]2[C@H](NC(=O)[C@H](N)c3ccccc3)C(=O)N2[C@H]1C(=O)O [ampicillin]
- Fold change of MICs [1]: 1 fold
- MIC [1]: 25 µg/mL
- Fold change of MICs [2]: 1 fold
- MIC [2]: 25 µg/mL
- Fold change of MICs [3]: 4 fold
- MIC [3]: 100 µg/mL
- Fold change of MICs [4]: 1 fold
- Fold change of MICs [5]: 1 fold
- MIC [5]: 25 µg/mL
- Fold change of MICs [6]: 1 fold
- MIC [6]: 25 µg/mL
- Fold change of MICs [7]: 4 fold
- MIC [7]: 100 µg/mL
